Results taken from ChEMBL document CHEMBL5325441, “Current and emerging therapies for Achondroplasia: The dawn of precision medicine” (2023).
Active and inactive are the calls of the source. The rule behind the calls is not given here.

Assays:
[1] = system: Bone; assay: Induction of bone regrowth in achondroplasia FVB mouse model assessed as improvement in dwarfism by measuring tibia size at 203 microg/kg, sc administered as continuous infusion for 35 days; type: functional; details: dose 203 µg/kg, time 35 day
[2] = Induction of bone regrowth in achondroplasia Cynomolgus monkey model assessed as improvement in dwarfism by measuring ulna size at 203 microg/kg, sc qd administered for 35 days; type: functional, Macaca fascicularis; details: dose 203 µg/kg, time 35 day
[3] = system: Bone; assay: Induction of bone regrowth in achondroplasia FVB mouse model assessed as improvement in dwarfism by measuring femur size at 203 microg/kg, sc administered as continuous infusion for 35 days; type: functional; details: dose 203 µg/kg, time 35 day
[4] = system: Bone; assay: Induction of bone regrowth in achondroplasia FVB mouse model assessed as improvement in dwarfism by measuring spine size at 203 microg/kg, sc administered as continuous infusion for 35 days; type: functional; details: dose 203 µg/kg, time 35 day
[5] = system: Bone; assay: Induction of bone regrowth in achondroplasia FVB mouse model assessed as improvement in dwarfism by measuring femur size at 203 microg/kg, sc qd administered for 35 days; type: functional; details: dose 203 µg/kg, time 35 day
[6] = system: Bone; assay: Induction of bone regrowth in achondroplasia FVB mouse model assessed as improvement in dwarfism by measuring spine size at 203 microg/kg, sc qd administered for 35 days; type: functional; details: dose 203 µg/kg, time 35 day
[7] = Induction of bone regrowth in achondroplasia Cynomolgus monkey model assessed as improvement in dwarfism by measuring tail size at 203 microg/kg, sc qd administered for 35 days; type: functional, Macaca fascicularis; details: dose 203 µg/kg, time 35 day
[8] = system: Bone; assay: Induction of bone regrowth in achondroplasia FVB mouse model assessed as improvement in dwarfism by measuring tibia size at 203 microg/kg, sc qd administered for 35 days; type: functional; details: dose 203 µg/kg, time 35 day
[9] = system: Bone; assay: Induction of bone regrowth in achondroplasia C57BL/6 mouse model expressing FGFR3 Y367C mutant assessed as improvement in dwarfism by measuring foramen magnum bone size at 2 mg/kg, sc administered for 15 days; type: functional; details: time 15 day
[10] = system: Bone; assay: Induction of bone regrowth in achondroplasia C57BL/6 mouse model expressing FGFR3 Y367C mutant assessed as improvement in dwarfism by measuring humerus bone size at 0.5 mg/kg, sc qd administered for 15 days; type: functional; details: time 15 day
[11] = system: Bone; assay: Induction of bone regrowth in achondroplasia C57BL/6 mouse model expressing FGFR3 Y367C mutant assessed as improvement in dwarfism by measuring tibia bone size at 2 mg/kg, sc administered for 15 days; type: functional; details: time 15 day
[12] = system: Bone; assay: Induction of bone regrowth in achondroplasia C57BL/6 mouse model expressing FGFR3 Y367C mutant assessed as improvement in dwarfism by measuring L4-L6 spine segment size at 2 mg/kg, sc administered for 15 days; type: functional; details: time 15 day
[13] = system: Bone; assay: Induction of bone regrowth in achondroplasia C57BL/6 mouse model expressing FGFR3 Y367C mutant assessed as improvement in dwarfism by measuring femur bone size at 2 mg/kg, sc administered for 15 days; type: functional; details: time 15 day
[14] = system: Bone; assay: Induction of bone regrowth in achondroplasia C57BL/6 mouse model expressing FGFR3 Y367C mutant assessed as improvement in dwarfism by measuring femur bone size at 0.5 mg/kg, sc qd administered for 15 days; type: functional; details: time 15 day
[15] = system: Bone; assay: Induction of bone regrowth in achondroplasia C57BL/6 mouse model expressing FGFR3 Y367C mutant assessed as improvement in dwarfism by measuring ulna bone size at 2 mg/kg, sc administered for 15 days; type: functional; details: time 15 day
[16] = system: Bone; assay: Induction of bone regrowth in achondroplasia C57BL/6 mouse model expressing FGFR3 Y367C mutant assessed as improvement in dwarfism by measuring tail bone size at 2 mg/kg, sc administered for 15 days; type: functional; details: time 15 day
[17] = system: Bone; assay: Induction of bone regrowth in achondroplasia C57BL/6 mouse model expressing FGFR3 Y367C mutant assessed as improvement in dwarfism by measuring humerus bone size at 2 mg/kg, sc administered for 15 days; type: functional; details: time 15 day
[18] = system: Bone; assay: Induction of bone regrowth in achondroplasia C57BL/6 mouse model expressing FGFR3 Y367C mutant assessed as improvement in dwarfism by measuring tibia bone size at 0.5 mg/kg, sc qd administered for 15 days; type: functional; details: time 15 day
[19] = system: Bone; assay: Induction of bone regrowth in achondroplasia C57BL/6 mouse model expressing FGFR3 Y367C mutant assessed as improvement in dwarfism by measuring ulna bone size at 0.5 mg/kg, sc qd administered for 15 days; type: functional; details: time 15 day
[20] = system: Bone; assay: Induction of bone regrowth in achondroplasia C57BL/6 mouse model expressing FGFR3 Y367C mutant assessed as improvement in dwarfism by measuring anterior-posterior diameter of the skull size at 2 mg/kg, sc administered for 15 days; type: functional; details: time 15 day
[21] = system: Bone; assay: Induction of bone regrowth in achondroplasia mouse model expressing FGFR3 Y367C mutant assessed as improvement in dwarfism by measuring tibia bone size at 240 microg/kg, sc qd administered for 21 days; type: functional, organism-based; details: dose 240.0 µg/kg, time 21.0 day
[22] = system: Bone; assay: Induction of bone regrowth in achondroplasia mouse model expressing FGFR3 Y367C mutant assessed as improvement in dwarfism by measuring femur bone size at 240 microg/kg, sc qd administered for 21 days; type: functional, organism-based; details: dose 240.0 µg/kg, time 21.0 day
[23] = system: Bone; assay: Induction of bone regrowth in achondroplasia mouse model assessed as improvement in dwarfism by measuring foramen magnum bone size at 800 microg/kg, sc qd administered for 21 days; type: functional, organism-based; details: dose 800.0 µg/kg, time 21.0 day
[24] = system: Bone; assay: Induction of bone regrowth in achondroplasia mouse model expressing FGFR3 Y367C mutant assessed as improvement in dwarfism by measuring tail bone size at 240 microg/kg, sc qd administered for 21 days; type: functional, organism-based; details: dose 240.0 µg/kg, time 21.0 day
[25] = system: Bone; assay: Induction of bone regrowth in achondroplasia mouse model assessed as improvement in dwarfism by measuring tibia bone size at 800 microg/kg, sc qd administered for 21 days; type: functional, organism-based; details: dose 800.0 µg/kg, time 21.0 day
[26] = system: Bone; assay: Induction of bone regrowth in achondroplasia mouse model expressing FGFR3 Y367C mutant assessed as improvement in dwarfism by measuring L4-L6 spine segment size at 240 microg/kg, sc qd administered for 21 days; type: functional, organism-based; details: dose 240.0 µg/kg, time 21.0 day
[27] = system: Bone; assay: Induction of bone regrowth in achondroplasia mouse model assessed as improvement in dwarfism by measuring tail bone size at 800 microg/kg, sc qd administered for 21 days; type: functional, organism-based; details: dose 800.0 µg/kg, time 21.0 day
[28] = system: Bone; assay: Induction of bone regrowth in achondroplasia mouse model expressing FGFR3 Y367C mutant assessed as improvement in dwarfism by measuring anterior-posterior diameter of the skull size at 240 microg/kg, sc qd administered for 21 days; type: functional, organism-based; details: dose 240.0 µg/kg, time 21.0 day
[29] = system: Bone; assay: Induction of bone regrowth in achondroplasia mouse model assessed as improvement in dwarfism by measuring femur bone size at 800 microg/kg, sc qd administered for 21 days; type: functional, organism-based; details: dose 800.0 µg/kg, time 21.0 day
[30] = system: Bone; assay: Induction of bone regrowth in achondroplasia mouse model assessed as improvement in dwarfism by measuring anterior-posterior diameter of the skull size at 800 microg/kg, sc qd administered for 21 days; type: functional, organism-based; details: dose 800.0 µg/kg, time 21.0 day
[31] = system: Bone; assay: Induction of bone regrowth in achondroplasia mouse model assessed as improvement in dwarfism by measuring L4-L6 spine segment size at 800 microg/kg, sc qd administered for 21 days; type: functional, organism-based; details: dose 800.0 µg/kg, time 21.0 day
[32] = system: Bone; assay: Induction of bone regrowth in achondroplasia mouse model expressing FGFR3 Y367C mutant assessed as improvement in dwarfism by measuring foramen magnum bone size at 240 microg/kg, sc qd administered for 21 days; type: functional, organism-based; details: dose 240.0 µg/kg, time 21.0 day

Molecule: CC[C@H](C)[C@@H]1NC(=O)[C@H](CCCNC(=N)N)NC(=O)[C@H](CC(=O)O)NC(=O)[C@H](CC(C)C)NC(=O)[C@H](CCCCN)NC(=O)[C@H](CC(C)C)NC(=O)CNC(=O)[C@H](Cc2ccccc2)NC(=O)[C@@H](NC(=O)CNC(=O)[C@H](CCCCN)NC(=O)[C@H](CO)NC(=O)[C@H](CC(C)C)NC(=O)CNC(=O)[C@H](CCCCN)NC(=O)[C@H](CCCCN)NC(=O)[C@H](CC(N)=O)NC(=O)[C@H](C)NC(=O)CNC(=O)[C@H](CCCCN)NC(=O)[C@H](Cc2ccc(O)cc2)NC(=O)[C@H](CCCCN)NC(=O)[C@H](CCCNC(=N)N)NC(=O)[C@H](C)NC(=O)[C@H](CC(N)=O)NC(=O)[C@@H]2CCCN2C(=O)[C@H](Cc2c[nH]cn2)NC(=O)[C@H](CCC(=O)O)NC(=O)[C@H](CCC(N)=O)NC(=O)[C@@H](N)CC(C)C)CSSC[C@@H](C(=O)O)NC(=O)CNC(=O)[C@H](CC(C)C)NC(=O)CNC(=O)[C@H](CO)NC(=O)[C@H](CCSC)NC(=O)[C@H](CO)NC(=O)CNC1=O
- Activity [1]: 12.2%
- Activity [2]: 2.7%
- Activity [3]: 7.1%
- Activity [4]: 25%
- Activity [5]: 5.5%
- Activity [6]: 11.3%
- Activity [7]: 9%
- Activity [8]: 4%

Molecule: CCN1CCN(c2ccc(Nc3cc(N(C)C(=O)Nc4c(Cl)c(OC)cc(OC)c4Cl)ncn3)cc2)CC1 [INFIGRATINIB]
- Activity [9]: 16.8%
- Activity [10]: 7%
- Activity [11]: 32.6%
- Activity [12]: 12.1%
- Activity [13]: 20.9%
- Activity [14]: 11%
- Activity [15]: 22.3%
- Activity [16]: 26.5%
- Activity [17]: 11.9%
- Activity [18]: 16%
- Activity [19]: 11%
- Activity [20]: 20.9%

Molecule: VOSORITIDE
- Activity [21]: 3.7%
- Activity [22]: 3.4%
- Activity [23]: inactive
- Activity [24]: inactive
- Activity [25]: 6.6%
- Activity [26]: 2.8%
- Activity [27]: 8%
- Activity [28]: 2.9%
- Activity [29]: 5.2%
- Activity [30]: 4.8%
- Activity [31]: 3.3%
- Activity [32]: inactive
